Source: EP4435060A1, “SILICON PHTHALOCYANINE AND TRIBENZOPHTHALOCYANINE DYES AND THEIR USE IN DIAGNOSIS AND THERAPY” (Albert-Ludwigs-Universität Freiburg, priority 2023, dated 2024)

What was measured:
[1] = UV/VIS absorption spectra; type: physicochemical; conditions: for bathochromic shift compared to the absorption maximum of Li-Cor-A: versus λmax = 680 nm; for λmax (UV/VIS spectrum): in H2O, 5 - 16 µM (Figure 13) or 4 - 15 µM (Figure 14)
prostate cancer cells = experiment: PIT controls on the prostate cancer cell lines of Figure 16E (free dye; conjugate without irradiation); type: cell-based, human; conditions: equimolar concentrations of free dye, 32 J/cm^2 red light, in words
Procedure: 2.5*10^5 cells were seeded per well in 35 mm cell culture dishes (Thermo Fischer Scientific) and cultivated for 24 h in the incubator (37°C, 5% CO2). On the next day, cell culture medium was removed and fresh medium containing the appropriate treatment (medium, 10 µg/ml antibody, 10 µg/ml conjugate or the equimolar amount of free dye) was administered to the cells. After incubation (37°C, 5% CO2, 24h), the cells were washed with 1x PBS and irradiated with a red light-emitting diode (LED), which emits light at λmax = 680 nm (L690-66-60, Marubeni, Tokyo, Japan) or a LED, which emits light at (λmax = 780 nm) (L780-66-60-550) at various mean irradiation doses. Power densities were quantified with an optical power meter (PM 100, Thorlabs, Newton, USA). After 24h, cell viability was analyzed using the vital dye erythrosine b (Logos Biosystems, Gyeonggi-do, South Korea) and the Neubauer Counting Chamber. Significance of the data was calculated with the Student's t test (unpaired, parametric with Welch's […]) using the GraphPad Prism 7 software (GraphPad Software Inc., San Diego, USA).

| Substance | absorption maximum λmax in the UV/VIS spectrum [1] [nm] | bathochromic shift compared to the absorption maximum of Li-Cor-A [1] [nm] | viability of irradiated cells incubated with free dye (prostate cancer cells) | λmax (UV/VIS spectrum) ([1]; pathlength = 1 cm) [nm] | λalmost max (UV/VIS spectrum) ([1]; 4 - 15 µM in H2O, pathlength = 1 cm) [nm] |
| --- | --- | --- | --- | --- | --- |
| 2-({[({6-[(2,5-Dihydro-1H-2,5-dioxopyrrol-1-yl)oxy]-6-oxohex-1-yl}amino)-carbonyloxy]but-1-ynyl}phenoxy)-29,31-bis[(3,4,5-tris{[1-(sodium 3-sulfonatopropyl)-1,2,3-tri-azol-4-yl]methoxy}phenyl)methoxy]silanediyl-29H,31H-silicon phthalocyanine [WB692-LB1] | 692 | 12 |  |  |  |
| 2-(4-[4-({[7-oxo-7-(perfluorophenoxy) heptyl]ca rbamoyl} oxy) but-1-yn-1-yl]phenoxy)-29,31-bis[(3,4,5-tris{[1-(sodium 3-sulfonatopropyl)-1,2,3-triazol-4-yl]methoxy}phenyl)methoxy]silanediyl-29H,31H-silicon phthalocyanine [WB692-LB2] | 692 | 12 |  |  |  |
| 2-[({5-[(1H-2,5-Dioxopyrrol-1-yl)pent-1-yl]amino]carbonyloxy)}but-1-yn-yl)phenoxy]-29,31-bis[(3,4,5-tris{[1-(sodium 3-sulfonatopropyl)-1,2,3-triazol-4-yl]methoxy}-phenyl)methoxyjsilanediyl-29H,31H-silicon phthalocyanine [WB692-CB1] | 692 | 12 | remained alive | 692 |  |
| 2-[({5-[(1H-2,5-Dioxopyrrol-1-yl)pent-1-yl]amino]carbonylamino)}but-1-yn-yl)phenoxy]-29,31-bis[(3,4,5-tris{[1-(sodium 3-sulfonatopropyl)-1,2,3-triazol-4-yl]methoxy}-phenyl)methoxyjsilanediyl-29H,31H-silicon phthalocyanine [WB692-CB2] | 692 | 12 |  |  |  |
| 2-({[({4-[(2,5-Dihydro-1H-2,5-dioxopyrrol-1-yl)oxy]-4-oxobut-1-yl}amino)-carbonyloxy]but-1-ynyl}phenoxy)-29,31-bis[(3,4,5-tris{[1-(sodium 3-sulfonatopropyl)-1,2,3-tri-azol-4-yl]methoxy}phenyl)methoxy]silanediyl-29H,31H-silicon tribenzophthalocyanine [WB795-LB1] | 795 | 115 |  |  |  |
| 2-[({5-[(1H-2,5-Dioxopyrrol-1-yl)pent-1-yl]amino]carbonylamino)}but-1-yn-yl)phenoxy]-29,31-bis[(3,4,5-tris{[1-(sodium 3-sulfonatopropyl)-1,2,3-triazol-4-yl]methoxy}-phenyl)methoxy]silanediyl-29H,31H-silicon tribenzophthalocyanine [WB795-CB1] | 795 | 115 |  |  |  |
| 2-(4-Iodophenoxy)-29,31-bis[(3,4,5-tris{[1-(sodium 3-sulfonatopropyl)-1,2,3-triazol-4-yl]methoxy}phenyl)methoxy]silanediyl-29H,31H-silicon tribenzophthalocyanine [compound 31] |  |  |  | 795 | 765 |
